US9217156B2, “Non human animal model for ulcerative colitis and its main complications” (Institut National de la Sante et de la Recherche Medicale …, priority 2012, dated 2015)

Assays:
WT and Nox1^KO mice = experiment: Tunicamycin (ERS inducer)-induced colitis in WT and Nox1 KO mice; assay type: in vivo; settings: mice overexpressing goblet cells (Nox1^KO) versus WT mice
IL10/Nox1^dKO mice = experiment: Salubrinal treatment of spontaneous colitis in IL10/Nox1 dKO mice; assay type: in vivo
Excerpt: To assess the pathogenic role of goblet cells in UC, WT and Nox1^KO mice were subjected to oral administration of DSS or rectal administration of TNBS. […] IRE1beta and ATF6alpha branch signaling were extended in colonic epithelial cells as evidenced by the increased XBP-1 mRNA splicing, the induction of GRP78, GRP94, PDI at both mRNA and protein levels, and dilated cisternae and gross distortion of the ER in goblet cells. […] Consistent with reduced eIF2α phosphorylation, increased expression of PPP1R15A/GADD34, a stress-inducible protein that recruits the catalytic subunit of protein phosphatase 1 and promotes eIF2alpha dephosphorylation, was detected in agreement with our previous data in humans^1. EIF2alpha phosphorylation is cytoprotective during ERS, because cells are sensitized to cell death when this pathway is genetically ablated^33 and protected when it is ectopically enforced^34. To test whether a selective pharmacological inhibitor of GADD34-mediated eIF2alpha dephosphorylation may alleviate colitis, IL10/Nox1^dKO mice were treated with 1 mg/kg salubrinal^35 for up to three weeks.

[1] = IL10/Nox1^dKO mice, 1 mg/kg for up to three weeks
[2] = salubrinal-treated IL10/Nox1^dKO mice

tunicamycin
severity of colitis induced by tunicamycin treatment (WT and Nox1^KO mice): significantly induced a more severe colitis in mice overexpressing goblet cells than in WT mice

O=C(/C=C/c1ccccc1)NC(NC(=S)Nc1cccc2cccnc12)C(Cl)(Cl)Cl (centres unmarked) [salubrinal]
immune cell infiltration (IL10/Nox1^dKO mice; [1]): markedly prevented
mucosal architecture and goblet cells (IL10/Nox1^dKO mice; [1]): restored intact mucosal architecture with normal goblet cells
apoptosis of colonic mucosa (IL10/Nox1^dKO mice; IL10/Nox1^dKO mice, 1 mg/kg for up to three weeks, at least in part via CHOP expression): protected colonic mucosa against apoptosis
eIF2alpha phosphorylation in colonic mucosa (IL10/Nox1^dKO mice; IL10/Nox1^dKO mice, 1 mg/kg for up to three weeks, mainly detected in colonic epithelial cells): caused robust eIF2alpha phosphorylation
Grp78/Bip and Grp94 expression (IL10/Nox1^dKO mice; [2]): trend toward reduced
amount of colonic and splenic Treg cells (IL10/Nox1^dKO mice; [2]): strongly decreased to baseline
levels of proinflammatory cytokines (IL10/Nox1^dKO mice; [2]): strongly decreased to baseline
